Data: patent US20050256073A1, “Immunostimulatory viral RNA oligonucleotides” (Coley Pharmaceutical Group, Inc., priority 2004, published 2005)
“And” between values parts separate entries of the source, which are not always exact repeats. Equal values may be shown once. Read-outs that look alike come from different tables or passages of the source.

Columns and labels:
Format in all cases: cell-based
[1] = test system: human PBMC; conditions: for EC50: read-out: IFN-α production EC50
[2] = test system: human PBMC; conditions: for EC50: read-out: TNF production EC50
[3] = test system: human PBMC; conditions: for EC50: read-out: IFN-γ production EC50
[4] = test system: human CD14+ cells; assay: CD80 expression on human CD14+ cells (FACS)
[5] = test system: human CD19+ cells (B cells); assay: CD80 expression on human CD19+ cells (FACS)
[6] = test system: human PBMC
[7] = target: T1, human TLR9 (Homo sapiens, UniProt Q9NR96); assay: NF-κB-luciferase readout in HEK293 cells stably transfected with human TLR9
T1 construct: expressed in transfected cells; host or cells: HEK293 cells, stably transfected, with NF-κB-luciferase reporter construct
T1 sequence (Q9NR96 26-1032): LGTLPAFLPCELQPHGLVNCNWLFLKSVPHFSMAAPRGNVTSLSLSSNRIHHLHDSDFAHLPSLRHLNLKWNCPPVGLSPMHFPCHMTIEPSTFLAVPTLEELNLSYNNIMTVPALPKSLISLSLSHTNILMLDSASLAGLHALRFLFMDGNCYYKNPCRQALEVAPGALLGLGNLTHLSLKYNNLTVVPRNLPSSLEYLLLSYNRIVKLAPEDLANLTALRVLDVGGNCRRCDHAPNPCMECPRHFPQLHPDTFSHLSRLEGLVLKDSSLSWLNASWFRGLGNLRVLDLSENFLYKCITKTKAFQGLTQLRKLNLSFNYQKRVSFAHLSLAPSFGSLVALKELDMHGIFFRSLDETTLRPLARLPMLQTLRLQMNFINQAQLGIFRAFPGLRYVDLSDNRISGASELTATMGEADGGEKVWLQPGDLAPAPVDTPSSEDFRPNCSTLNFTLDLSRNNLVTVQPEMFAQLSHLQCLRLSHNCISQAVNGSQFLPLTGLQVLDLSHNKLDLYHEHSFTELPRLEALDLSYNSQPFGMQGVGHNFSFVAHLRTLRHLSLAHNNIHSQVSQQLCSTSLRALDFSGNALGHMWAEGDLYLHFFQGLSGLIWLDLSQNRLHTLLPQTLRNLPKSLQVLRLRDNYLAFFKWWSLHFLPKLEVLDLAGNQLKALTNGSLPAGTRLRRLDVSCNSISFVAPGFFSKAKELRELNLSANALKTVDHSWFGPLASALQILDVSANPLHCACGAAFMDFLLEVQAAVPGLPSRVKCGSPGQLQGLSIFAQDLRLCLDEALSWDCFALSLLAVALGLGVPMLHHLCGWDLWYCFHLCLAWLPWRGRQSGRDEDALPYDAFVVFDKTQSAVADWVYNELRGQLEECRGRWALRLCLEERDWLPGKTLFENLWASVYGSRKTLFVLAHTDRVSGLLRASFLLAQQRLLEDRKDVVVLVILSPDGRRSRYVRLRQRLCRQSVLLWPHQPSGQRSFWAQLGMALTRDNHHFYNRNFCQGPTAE
Procedure: (§1) Emitted light varied in direct proportion to NF-κB activation.
(§2) The effect of immunostimulatory oligonucleotide was assessed by titrating the amount or concentration of oligonucleotide concentration in a given experiment. The effect of immunostimulatory oligonucleotide concentration was expressed in terms of EC50 (concentration at which immunostimulatory oligonucleotide was 50 percent effective compared to maximum effect). The potency of a given immunostimulatory oligonucleotide was expressed as maximum stimulation index (SI max; the maximum fold increase in signal over that of untreated control) or maximum activity.
(§3) Stimulation and measurement of signal transduction in HEK293 cells stably transfected with either human TLR8 or human TLR9 and an NF-κB-luciferase reporter construct was performed essentially as described in Example 1. […] Results are expressed in terms of EC50 in μM and stimulation index (SI)=fold induction of NF-κB-luciferase activity in ligand-pulsed cells.

[8] = target: T2, human TLR8 (Homo sapiens, UniProt Q9NR97); assay: NF-κB-luciferase readout in HEK293 cells stably transfected with human TLR8
T2 construct: expressed in transfected cells; host or cells: HEK293 cells, stably transfected, with NF-κB-luciferase reporter construct
T2 sequence (Q9NR97 27-1041): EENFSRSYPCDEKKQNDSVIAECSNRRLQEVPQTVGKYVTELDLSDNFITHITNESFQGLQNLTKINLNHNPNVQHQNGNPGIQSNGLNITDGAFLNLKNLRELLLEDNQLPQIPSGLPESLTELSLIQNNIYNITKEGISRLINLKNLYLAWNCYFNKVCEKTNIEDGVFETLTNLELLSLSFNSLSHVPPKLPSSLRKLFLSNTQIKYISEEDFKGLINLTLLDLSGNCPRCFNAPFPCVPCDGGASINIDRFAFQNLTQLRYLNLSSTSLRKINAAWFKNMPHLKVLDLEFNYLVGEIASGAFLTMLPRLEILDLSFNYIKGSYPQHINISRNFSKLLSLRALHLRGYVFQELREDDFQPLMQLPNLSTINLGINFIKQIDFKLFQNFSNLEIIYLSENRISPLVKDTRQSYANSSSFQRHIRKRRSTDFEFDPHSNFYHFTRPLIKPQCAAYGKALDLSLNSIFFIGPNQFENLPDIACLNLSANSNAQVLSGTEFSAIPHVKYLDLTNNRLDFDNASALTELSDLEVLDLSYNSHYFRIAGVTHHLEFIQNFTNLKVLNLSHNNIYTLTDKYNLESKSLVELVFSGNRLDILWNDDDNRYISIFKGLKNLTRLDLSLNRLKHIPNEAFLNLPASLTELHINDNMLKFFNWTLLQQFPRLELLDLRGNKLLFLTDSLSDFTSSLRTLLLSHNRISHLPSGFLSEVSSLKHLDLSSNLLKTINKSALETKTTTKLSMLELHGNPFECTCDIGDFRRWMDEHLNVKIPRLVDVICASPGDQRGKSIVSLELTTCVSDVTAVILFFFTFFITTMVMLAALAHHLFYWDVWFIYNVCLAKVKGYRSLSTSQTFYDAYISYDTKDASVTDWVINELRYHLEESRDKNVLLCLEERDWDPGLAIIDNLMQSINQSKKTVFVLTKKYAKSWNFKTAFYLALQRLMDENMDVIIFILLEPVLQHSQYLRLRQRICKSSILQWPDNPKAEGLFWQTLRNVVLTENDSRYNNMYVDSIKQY
Procedure: as §1, §2, §3

| Substance | IFN-α production max activity [1] | EC50 [1] | TNF production max activity [2] | EC50 [2] | IFN-γ production max activity [3] | other results |
| --- | --- | --- | --- | --- | --- | --- |
| UCGUCGUUUUGUCGUUUUGUCGUU [ORN 14] | 2783 pg/mL | 37.3 nM | 53833 pg/mL | 78 nM |  |  |
| TUGTUGTTTTUGGUGGUUGUUG [ORN 18] | 2617 pg/mL | 79.5 nM | 61667 pg/mL | 200 nM |  |  |
| GGGGAUGAUGTUGTGGGGGGG [ORN 20] | 0 pg/mL |  | 0 pg/mL |  |  |  |
| GCCACCGAGCCGAUUUUACC [ORN 23] | 2333 pg/mL | 41 nM | 25500 pg/mL | 228 nM |  |  |
| UUGUUGUUUUUGGUGGUUGUUG [ORN 17] | 3000 pg/mL | 15.2 nM | 70000 pg/mL | 57.5 nM |  |  |
| UUGUACGCAUUUUUUCGCGU [ORN 1] |  |  | 8500 pg/mL and 8000 pg/mL and 10000 pg/mL | 494 nM and 417 nM and 473 nM and 529 nM and 478 nM | 50000 pg/mL and 60000 pg/mL and 55000 pg/mL | EC50 [3]: 592 nM and 517 nM and 555 nM |
| AGCGAAAGCAGGUCAAUUAU [ORN 5, reference compound] | 0 pg/mL |  | 0 pg/mL |  | 0 pg/mL |  |
| UUGAUCUGGUUGUUAAGCGU [ORN 6] |  |  | 8750 pg/mL and 10000 pg/mL and 7000 pg/mL and 8000 pg/mL | 462 nM and 409 nM and 604 nM and 498 nM and 493 nM | 60000 pg/mL and 30000 pg/mL and 45000 pg/mL | EC50 [3]: 635 nM and 586 nM and 611 nM |
| dNdNdNdNdNdNdNUGdNdNdNdNdNdNdNdNdN [ORN 34] | 0 pg/mL |  | 0 pg/mL |  |  |  |
| GGGGAUGAUGUUGUGGGGGGG [ORN 19] | 2867 pg/mL | 129 nM | 37667 pg/mL | 415 nM |  |  |
| UGUUUUUUCUCUUGUUUGGU [ORN 3] |  |  |  | 419 nM and 421 nM and 470 nM and 337 nM and 412 nM | 60000 pg/mL and 70000 pg/mL and 65000 pg/mL | EC50 [3]: 528 nM and 606 nM and 567 nM; induction of co-stimulatory molecule CD80 on CD14+ cells [4]: induce; induction of co-stimulatory molecule CD80 on CD19+ cells (B cells) [5]: induce |
| dNdNdNdNdNdNUUGUGdNdNdNdNdNdNdN [ORN 31] | 766.7 pg/mL | 3870 nM | 18000 pg/mL | 4890 nM |  |  |
| dNdNdNdNdNdNUUGdNdNdNdNdNdNdNdNdN [ORN 33] | 0 pg/mL |  | 0 pg/mL |  |  |  |
| AAUGGUUUGUUUGUCUUCGU [ORN 7] |  |  | 7500 pg/mL and 10000 pg/mL and 7000 pg/mL and 8000 pg/mL and 5000 pg/mL | 357 nM and 325 nM and 544 nM and 468 nM and 424 nM | 50000 pg/mL and 80000 pg/mL and 65000 pg/mL | EC50 [3]: 490 nM and 642 nM and 566 nM |
| GCCACCGAGCCGAUUGUACC [ORN 22] | 2417 pg/mL | 1110 nM | 23833 pg/mL | 244 nM |  |  |
| AUAAUUGACCUGCUUUCGCU [ORN 4] |  |  | 5750 pg/mL and 8000 pg/mL and 5000 pg/mL | 412 nM and 400 nM and 559 nM and 512 nM and 471 nM |  | EC50 [3]: 637 nM and 490 nM and 564 nM; induction of co-stimulatory molecule CD80 on CD14+ cells [4]: induce; induction of co-stimulatory molecule CD80 on CD19+ cells (B cells) [5]: induce; profile of immunostimulation (cytokines induced) [6]: very broad, including induction of TNF-α, IL-6, IL-12 p40, IFN-α, and IFN-γ |
| GCCACCGAGCCGAAGGCAAC [ORN 21, reference compound] | 0 pg/mL |  | 0 pg/mL |  |  | immunostimulatory activity (in words) [6]: no immunostimulatory activity |
| TCGTCGTTTTCGGCGCGCGCCG [CpG ODN 2395, reference compound] |  |  |  |  |  | induction of co-stimulatory molecule CD80 on CD19+ cells (B cells) [5]: induce |
| TUGTUGTTTTGTUGTTTTGTUGTT [ORN 16] | 2267 pg/mL | 1100 nM | 56667 pg/mL | 234 nM |  |  |
| CUUACCCAACUUUGUUUGGU [ORN 2] |  | 34 nM and 68 nM and 60 nM and 38 nM and 50 nM | 9500 pg/mL and 8000 pg/mL and 13000 pg/mL and 10000 pg/mL and 7000 pg/mL |  | 50000 pg/mL and 40000 pg/mL and 45000 pg/mL | EC50 [3]: 514 nM and 529 nM and 522 nM |
| UUGUUGUUUUGUUGUUUUGUUGUU [ORN 15] | 2500 pg/mL | 5 nM | 60000 pg/mL | 40 nM |  |  |
| dNdNdNdNdNdNUUGUdNdNdNdNdNdNdNdN [ORN 32] | 666.7 pg/mL | 4560 nM | 30000 pg/mL | 7980 nM |  |  |
| dTdCdGdTdCdGdTdTdT 2′-5′ (GUUGUGU) dAdAdT [ORN 13] |  | 15 nM and 25 nM | 0 pg/mL |  | 0 pg/mL | TLR9 stimulation (in words) [7]: maintained; EC50 ([7]; Table 11, HEK293, NF-κB-luciferase): 110 nM; TLR8 stimulation (in words) [8]: lost |
